Patent US20260021061A1, “ARIADNE AND ANALOGS FOR THE TREATMENT OF NEUROLOGICAL AND NEUROMUSCLAR DISORDERS” (priority 2022, published 2026)
Where two headings read alike, the source gives them in different places.

Legend:
5-HT2A [1] = target: T1, 5-HT2A (Homo sapiens, UniProt P28223); test: IP1 agonism (IP1 formation assay), Cerep, Eurofins; type: cell-based; parameters: purchased Cerep, Eurofins (contract assay); conditions: duplicate averages only
Description: FIGS. 8A-B Comparison of 5-HT2A (a) and 5-HT2B (b) receptor in IP1 formation assay for selected compounds, performed at Cerep, Eurofins.
IP1 agonism summary for selected compounds (duplicate averages only), performed at Cerep, Eurofins.

5-HT4 receptor = 5-HT4 receptor (Homo sapiens, UniProt Q13639); test: 5-HTome G protein activation BRET assay; conditions: 5-HTome screen
Description: (§1) All BRET assays were conducted using BRET2 in HEK293T cells (ATCC CRL-11268; mycoplasma-free), which were subcultured in high-glucose DMEM (VWR) supplemented with 10% FBS (Life Technologies).
Constructs in G protein-dissociation BRET assays were derived from the codon-optimized Tango pcDNA3.1 library (Addgene) with V2tail/TEV/tTA encoding regions deleted to yield “de-Tango” constructs. […] All Gα-Rluc8, Beta, and GFP2-γ constructs were derived from the TRUPATH pcDNA5/FRT/TO library (Addgene). […]
On the day of the assay, plates were decanted and 20 uL of drug buffer per well (1×HBSS, 20 mM HEPES, pH 7.4) was added using a Multidrop (ThermoFisher Scientific), and plates were allowed to equilibrate at 37° C. in a humidified incubator before receiving drug stimulation. […] Before reading, addition of coelenterazine 400a (5 uM final concentration; Nanolight Technology) was performed by the [sequence]. Immediately after, plates were read at 400 nm Rluc and fluorescent GFP2 emission at 510 nm for BRET2 at 0.8 second per well using a PheraStarFSX (BMB Lab Tech).
The BRET ratios of 510/400 luminescence were calculated per well and were plotted as a function of drug concentration using Graphpad Prism 5 or 9 (Graphpad Software Inc., San Diego, CA). […]

5-HT2A [2] = target: T1, 5-HT2A; test: G protein (Gq) dissociation BRET assay; type: cell-based; parameters: host or cells: HEK293T (ATCC CRL-11268)
[3] = Pharmacokinetic assessment, plasma and brain; type: in vivo, male C57BL/6 mice; conditions: for Mean brain Concentration (ng/g): LLOQ 2.06 ng/mL for brain; for AUC(0-t): read-out: AUClast (hr*ng/mL), plasma
Description: PK assessments were performed at Sai Life (Telangana, India) according to the following general procedure. A total twenty-seven male C57BL/6 mice were used in this study with 3 mice per time point. Animals were administered subcutaneously at 10 mg/kg dose of test article. The formulation vehicle used was 0.9% normal saline. Blood samples (approximately 60 μL) were collected under light isoflurane anesthesia (Surgivet®) from retro orbital plexus from a set of three mice at 0.08, 0.25, 0.5, 1, 2, 4, 8, 24 and 48 hr. Immediately after blood collection, plasma was harvested by centrifugation at 4000 rpm, 10 min at […] and samples were stored at −70±10° C. until bioanalysis. Following blood collection, immediately animals were sacrificed followed by cutting abdominal vena-cava and whole body was perfused from heart using 10 mL of normal saline. Brain samples were collected from set of three mice at 0.08, 0.25, 0.5, 1, 2, 4, 8, 24 and 48 hr. After isolation, brain samples were rinsed three times in ice cold normal saline (for 5-10 seconds/rinse using ˜5-10 mL normal saline in disposable petri dish for each rinse) and dried on blotting paper. Brain samples were homogenized using ice-cold phosphate buffer saline (pH−7.4). Total homogenate volume was three times the tissue weight. All homogenates were stored below −70±10° C. until bioanalysis. All samples were processed for analysis by protein precipitation method and analyzed with fit-for-purpose LC-MS/MS method (LLOQ=5.16 ng/mL for plasma and 2.06 ng/mL for brain).

5-HT7a receptor = 5-HT7a receptor (Homo sapiens, UniProt P34969); test: 5-HTome G protein activation BRET assay
Description: as §1
(§2) Constructs in G protein-dissociation BRET assays were derived from the codon-optimized Tango pcDNA3.1 library (Addgene) with V2tail/TEV/tTA encoding regions deleted to yield “de-Tango” constructs. […] All Gα-Rluc8, Beta, and GFP2-γ constructs were derived from the TRUPATH pcDNA5/FRT/TO library (Addgene).
(§3) Approximately 48 hours before assays, cells were transfected using a reverse transfection method and plated in 1% dFBS at an approximate density of 15,000 cells per well into poly-L-lysine-coated 384-well white assay plates (Grenier Bio-One). For G protein-dissociation assays, cells were transfected in a 1:1:1:1 ratio of receptor: Gα-Rluc8: Beta: GFP2-γ constructs. […] All transfections were prepared in Opti-MEM (Invitrogen) and used a 3:1 ratio of TransIT-2020 (Mirus) uL:ug total DNA.
(§4) On the day of the assay, plates were decanted and 20 uL of drug buffer per well (1×HBSS, 20 mM HEPES, pH 7.4) was added using a Multidrop (ThermoFisher Scientific), and plates were allowed to equilibrate at 37° C. in a humidified incubator before receiving drug stimulation. Drug dilutions of all compounds were performed in McCorvy buffer (1×HBSS, 20 mM HEPES, pH 7.4, supplemented with 0.3% BSA fatty acid free (GoldBio), and 0.03% ascorbic acid). […] Before reading, addition of coelenterazine 400a (5 uM final concentration; Nanolight Technology) was performed by the [sequence]. Immediately after, plates were read at 400 nm Rluc and fluorescent GFP2 emission at 510 nm for BRET2 at 0.8 second per well using a PheraStarFSX (BMB Lab Tech).
(§5) The BRET ratios of 510/400 luminescence were calculated per well and were plotted as a function of drug concentration using Graphpad Prism 5 or 9 (Graphpad Software Inc., San Diego, CA). Data were normalized to % positive control stimulation and analyzed using nonlinear regression “log(agonist) vs. response” to yield Emax and EC50 parameter estimates.

5-HT2B = 5-HT2B (Homo sapiens, UniProt P41595); test: G protein (Gq) dissociation BRET assay
Description: as §1, §2, §3
On the day of the assay, plates were decanted and 20 uL of drug buffer per well (1×HBSS, 20 mM HEPES, pH 7.4) was added using a Multidrop (ThermoFisher Scientific), and plates were allowed to equilibrate at 37° C. in a humidified incubator before receiving drug stimulation. Drug dilutions of all compounds were performed in McCorvy buffer (1×HBSS, 20 mM HEPES, pH 7.4, supplemented with 0.3% BSA fatty acid free (GoldBio), and 0.03% ascorbic acid). […] Next, plates were incubated at 37° C. in a humidified incubator for 60 minutes or specified time point. Before reading, addition of coelenterazine 400a (5 uM final concentration; Nanolight Technology) was performed by the [sequence]. Immediately after, plates were read at 400 nm Rluc and fluorescent GFP2 emission at 510 nm for BRET2 at 0.8 second per well using a PheraStarFSX (BMB Lab Tech).
as §5

5-HT2A [4] = target: T1, 5-HT2A; test: Radioligand displacement assay; type: binding
Description: Therefore, an orthogonal assay measuring calcium flux was also performed for the 5-HT2 receptors (Klein et al., 2020).

C57BL/6J mice = test: Head twitch response (HTR) in mice; type: in vivo, mouse
Description: All samples were prepared the same day testing was performed. Solids were weighed into small vials and dissolved in USP grade 0.85% saline with addition of 2 molar equivalents of glacial acetic acid. Sonication and gentle heating were applied until complete dissolution. The compounds were subsequently filtered through 0.45 μm filters into a new glass vial. All compounds were administered at a 1 mg/kg subcutaneous dose at a volume of 10 mL/kg of body weight. Volinanserin hydrochloride salt (MDL 100907) was purchased from Toronto Research Chemicals.
All experimental procedures involving animals were approved by an Institutional Animal Care and Use Committee (IACUC) and adhered to principles described in the National Institutes of Health Guide for the Care and Use of Laboratory Animals. The studies were conducted at AAALAC accredited facilities. Animals received regular veterinary care (weekly by institutional veterinarians) including daily health monitoring (by experimenters) of the animals (observing home cage behaviors, nesting, and body weight). All procedures were designed to minimize any stress/distress. Healthy adult male mice C57BL/6J (8-12 weeks, 26-33 g) were purchased from the Jackson Laboratory (Bar Harbor, ME) and housed 5 mice per cage with food and water available ad libitum. Mice were maintained on a 12-h light/dark cycle (lights on 7:00-19:00) and all testing was done in the light cycle. Temperature was kept constant at 22±2° C., and relative humidity was maintained at 50±5%
The head-twitch response evaluation was performed by a trained observer who was blinded to both drug and dose. Mice were moved to the testing room 30 min before the experiment to allow for acclimation. The body weight of each mouse was recorded. Mice were administered either a 1, 3, 10, or 30 mg/kg s.c. dose of compound solution (volume of injection 260-330 μL based on body weight). […] The total number of head-twitches over the 15 minute period were recorded. Five mice were used per dose.
DOI was tested at the doses of 0.3, 1, 3, and 10 mg/kg (s.c., 5 mice per dose) and testing began immediately after administration of the compound. Ariadne was tested at the doses of 1, 3, 10, and 30 mg/kg (s.c., 5 mice per dose) and there was a 10 min interval between treatment and testing.

5-HT5a receptor = 5-HT5a receptor (Homo sapiens, UniProt P47898); test: 5-HTome G protein activation BRET assay
Description: as §1, §2, §3, §4, §5

[5] = EC50 (5-HT2A) (M), Table 7, IP1 agonism
[6] = EC50, agonist activity, 5-HTome screen
[7] = SC 10 mg/kg, 24 hr, LLOQ 5.16 ng/mL
[8] = SC 10 mg/kg, 48 hr, LLOQ 5.16 ng/mL
[9] = male, C57BL/6, mouse, brain and plasma, SC 10 mg/kg, read-out: Brain/Plasma ratio
[10] = male, C57BL/6, mouse, brain, SC 10 mg/kg, read-out: Mean brain Concentration
[11] = male, C57BL/6, mouse, brain, SC 10 mg/kg, 8 hr, read-out: Mean brain Concentration
[12] = male, C57BL/6, mouse, plasma, SC 10 mg/kg, read-out: Mean plasma Concentration
[13] = male, C57BL/6, mouse, SC 10 mg/kg, brain, read-out: Cmax (ng/g), brain
[14] = male, C57BL/6, mouse, SC 10 mg/kg, brain, read-out: T1/2 (hr), brain (converted)
[15] = male, C57BL/6, mouse, SC 10 mg/kg, brain, read-out: Tmax (hr), brain
[16] = male, C57BL/6, mouse, SC 10 mg/kg, plasma
[17] = male, C57BL/6, mouse, SC 10 mg/kg, plasma, read-out: Cmax (ng/mL), plasma
[18] = male, C57BL/6, mouse, SC 10 mg/kg, plasma, read-out: T1/2 (hr), plasma (converted)
[19] = male, C57BL/6, mouse, SC 10 mg/kg, plasma, read-out: Tmax (hr), plasma

T1 sequence (P28223 whole entry): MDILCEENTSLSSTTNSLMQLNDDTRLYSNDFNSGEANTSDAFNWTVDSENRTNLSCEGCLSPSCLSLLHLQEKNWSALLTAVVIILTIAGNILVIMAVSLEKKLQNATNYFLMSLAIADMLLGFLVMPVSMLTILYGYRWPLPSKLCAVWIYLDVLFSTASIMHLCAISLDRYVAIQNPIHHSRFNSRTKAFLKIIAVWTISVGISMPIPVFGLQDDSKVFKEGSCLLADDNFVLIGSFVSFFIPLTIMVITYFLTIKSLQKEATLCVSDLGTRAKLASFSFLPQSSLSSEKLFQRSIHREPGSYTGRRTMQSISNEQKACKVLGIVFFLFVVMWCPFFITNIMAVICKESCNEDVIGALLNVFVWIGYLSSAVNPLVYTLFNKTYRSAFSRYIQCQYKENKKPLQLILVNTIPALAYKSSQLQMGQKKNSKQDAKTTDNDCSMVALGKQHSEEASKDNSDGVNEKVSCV
Sequence of 5-HT5a receptor (P47898 whole entry): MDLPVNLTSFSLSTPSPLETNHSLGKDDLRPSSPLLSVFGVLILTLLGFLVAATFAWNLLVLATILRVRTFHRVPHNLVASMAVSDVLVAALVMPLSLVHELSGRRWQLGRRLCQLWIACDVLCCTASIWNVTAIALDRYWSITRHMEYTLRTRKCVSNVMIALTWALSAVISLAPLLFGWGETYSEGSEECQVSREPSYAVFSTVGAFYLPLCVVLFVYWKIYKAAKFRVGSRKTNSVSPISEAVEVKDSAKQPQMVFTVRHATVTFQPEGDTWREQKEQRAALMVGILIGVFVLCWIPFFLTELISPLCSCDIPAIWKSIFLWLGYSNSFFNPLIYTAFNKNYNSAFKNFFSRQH
Sequence of 5-HT2B (P41595 whole entry): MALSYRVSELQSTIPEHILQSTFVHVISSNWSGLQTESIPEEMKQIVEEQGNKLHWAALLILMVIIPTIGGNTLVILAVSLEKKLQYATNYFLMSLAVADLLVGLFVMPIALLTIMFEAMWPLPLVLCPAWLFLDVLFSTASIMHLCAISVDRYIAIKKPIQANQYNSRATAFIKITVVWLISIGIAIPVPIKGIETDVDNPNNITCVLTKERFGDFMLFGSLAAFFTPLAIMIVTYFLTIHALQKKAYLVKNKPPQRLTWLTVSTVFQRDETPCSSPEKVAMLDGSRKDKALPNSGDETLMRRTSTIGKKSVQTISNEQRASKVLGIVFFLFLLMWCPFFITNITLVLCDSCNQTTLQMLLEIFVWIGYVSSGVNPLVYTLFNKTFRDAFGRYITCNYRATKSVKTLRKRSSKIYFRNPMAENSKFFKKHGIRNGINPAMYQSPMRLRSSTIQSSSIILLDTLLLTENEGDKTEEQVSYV
Sequence of 5-HT7a receptor (P34969 1-445 isoform P34969-2): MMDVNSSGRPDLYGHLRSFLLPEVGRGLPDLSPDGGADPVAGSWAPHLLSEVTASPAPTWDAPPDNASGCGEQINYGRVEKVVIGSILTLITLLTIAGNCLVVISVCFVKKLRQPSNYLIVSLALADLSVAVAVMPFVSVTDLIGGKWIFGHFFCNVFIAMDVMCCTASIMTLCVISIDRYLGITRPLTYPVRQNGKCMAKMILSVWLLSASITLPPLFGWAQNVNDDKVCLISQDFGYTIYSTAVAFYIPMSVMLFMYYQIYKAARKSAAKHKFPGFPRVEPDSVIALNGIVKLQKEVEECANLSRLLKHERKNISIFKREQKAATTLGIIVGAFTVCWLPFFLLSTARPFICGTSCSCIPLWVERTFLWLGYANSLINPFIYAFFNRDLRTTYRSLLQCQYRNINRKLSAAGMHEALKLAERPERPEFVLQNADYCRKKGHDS
Sequence of 5-HT4 receptor (Q13639 whole entry): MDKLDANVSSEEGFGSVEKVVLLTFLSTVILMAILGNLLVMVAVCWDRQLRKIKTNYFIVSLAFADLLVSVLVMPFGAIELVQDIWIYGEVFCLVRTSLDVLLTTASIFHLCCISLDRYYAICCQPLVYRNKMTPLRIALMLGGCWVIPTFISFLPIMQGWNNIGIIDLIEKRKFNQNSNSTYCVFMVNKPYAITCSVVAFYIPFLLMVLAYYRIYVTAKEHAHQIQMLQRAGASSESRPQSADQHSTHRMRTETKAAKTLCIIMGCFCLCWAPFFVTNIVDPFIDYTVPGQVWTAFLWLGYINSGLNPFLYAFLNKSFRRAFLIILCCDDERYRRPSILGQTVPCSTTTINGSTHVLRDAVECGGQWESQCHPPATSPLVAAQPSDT

SMILES: CCC(N)Cc1cc(OC)c(C)cc1OC (racemic) [Compound 32, 1-(2,5-dimethoxy-4-methylphenyl)butan-2-amine]
- EC50 (5-HT2A [1]; 5-HT2a (IP1 agonism), Table 2): 1.3e-06 M
- EC50 (5-HT2A [1]; [5]): 1.8e-06 M
- agonist activity (5-HT4 receptor): Little to no agonist activity
- Emax (5-HT2A [2]; 5-HTome screen, read-out: Emax, agonist activity): > 70%
- EC50 (5-HT2A [2]; EC50 (EC50/Gq), Gq dissociation, Gq dissociation BRET): 185 nM
- EC50 (5-HT2A [2]; [6]): < 1000 nM
- signaling potency and efficacy in comparison to DOM (5-HT2A [2]; Gq, G11 and β-arrestin2 pathways coupled to 5-HT2A): lower signaling potency and efficacy
- Mean plasma Concentration (ng/mL) ([3]; SC 10 mg/kg, 8 hr, LLOQ 5.16 ng/mL): BLQ
- Mean brain Concentration (ng/g) ([3]; SC 10 mg/kg, 24 hr): BLQ
- Mean plasma Concentration (ng/mL) [3, 7]: BLQ
- Mean brain Concentration (ng/g) ([3]; SC 10 mg/kg, 48 hr): BLQ
- Mean plasma Concentration (ng/mL) [3, 8]: BLQ
- Kp at 0.083 h [3, 9]: 2.43
- Kp at 0.25 h [3, 9]: 5.93
- Kp at 0.5 h [3, 9]: 8.47
- Kp at 1 h [3, 9]: 10.2
- Kp at 2 h [3, 9]: 9.93
- Kp at 4 h [3, 9]: 9.01
- concentration at 0.083 hr [3, 10]: 1630 ng/g
- concentration at 0.25 hr [3, 10]: 4760 ng/g
- concentration at 0.5 hr [3, 10]: 5610 ng/g
- concentration at 1 hr [3, 10]: 5240 ng/g
- concentration at 2 hr [3, 10]: 1710 ng/g
- concentration at 4 hr [3, 10]: 368 ng/g
- concentration at 8 hr [3, 11]: 16.2 ng/g
- concentration at 0.083 hr [3, 12]: 672 ng/mL
- concentration at 0.25 hr [3, 12]: 802 ng/mL
- concentration at 0.5 hr [3, 12]: 662 ng/mL
- concentration at 1 hr [3, 12]: 512 ng/mL
- concentration at 2 hr [3, 12]: 172 ng/mL
- concentration at 4 hr [3, 12]: 40.9 ng/mL
- Cmax [3, 13]: 5610 ng/g
- half-life [3, 14]: 0.89 h
- Tmax [3, 15]: 0.5 h
- AUC(0-t) [3, 16]: 1180 ng·h/mL
- Cmax [3, 17]: 802 ng/mL
- half-life [3, 18]: 0.84 h
- Tmax [3, 19]: 0.25 h
- brain penetration ([3]; mouse, in vivo): high brain penetration
- EC50 (5-HT7a receptor): > 10 µM
- agonist activity (5-HT7a receptor; 5-HTome screen): Little to no agonist activity
- EC50 (5-HT2B; [6]): < 1000 nM
- Emax (5-HT2B; read-out: Emax, agonist activity): > 70%
- Ki (5-HT2A [4]): 120 nM
- decrease in HTR count per 15 min compared to racemic DOPR (C57BL/6J mice; s.c.): > 3 fold
- dose of maximum (peak) HTR (C57BL/6J mice; s.c.): 10 mg/kg
- EC50 (5-HT5a receptor): > 10 µM
- agonist activity (5-HT5a receptor; 5-HTome screen): Little to no agonist activity

SMILES: CCC(N)Cc1cc(OC)c(C(F)(F)F)cc1OC (racemic) [Compound 29, 1-(2,5-dimethoxy-4-(trifluoromethyl)phenyl)butan-2-amine]
- EC50 (5-HT2A [1]; 5-HT2a (IP1 agonism), Table 2): 5e-08 M
- EC50 (5-HT2A [1]; [5]): 6.3e-08 M
- selectivity for 5-HT2A over 5-HT2B (5-HT2A [2]; by Gq dissociation signaling potency): 8 fold
- Mean brain Concentration (ng/g) ([3]; SC 10 mg/kg, 24 hr): BLQ
- Mean plasma Concentration (ng/mL) [3, 7]: BLQ
- Mean brain Concentration (ng/g) ([3]; SC 10 mg/kg, 48 hr): BLQ
- Mean plasma Concentration (ng/mL) [3, 8]: BLQ
- Kp at 0.083 h [3, 9]: 4.66
- Kp at 0.25 h [3, 9]: 8.91
- Kp at 0.5 h [3, 9]: 8.93
- Kp at 1 h [3, 9]: 18.1
- Kp at 2 h [3, 9]: 18.2
- Kp at 4 h [3, 9]: 15.2
- Kp at 8 h ([3]; male, C57BL/6, mouse, brain and plasma, SC 10 mg/kg, 8 hr, read-out: Brain/Plasma ratio): 12.7
- concentration at 0.083 hr [3, 10]: 2010 ng/g
- concentration at 0.25 hr [3, 10]: 4160 ng/g
- concentration at 0.5 hr [3, 10]: 3770 ng/g
- concentration at 1 hr [3, 10]: 3900 ng/g
- concentration at 2 hr [3, 10]: 1740 ng/g
- concentration at 4 hr [3, 10]: 787 ng/g
- concentration at 8 hr [3, 11]: 170 ng/g
- concentration at 0.083 hr [3, 12]: 431 ng/mL
- concentration at 0.25 hr [3, 12]: 467 ng/mL
- concentration at 0.5 hr [3, 12]: 422 ng/mL
- concentration at 1 hr [3, 12]: 216 ng/mL
- concentration at 2 hr [3, 12]: 95.5 ng/mL
- concentration at 4 hr [3, 12]: 51.9 ng/mL
- concentration at 8 hr ([3]; male, C57BL/6, mouse, plasma, SC 10 mg/kg, 8 hr, LLOQ 5.16 ng/mL, read-out: Mean plasma Concentration): 13.4 ng/mL
- Cmax [3, 13]: 4160 ng/g
- half-life [3, 14]: 1.79 h
- Tmax [3, 15]: 0.25 h
- AUC(0-t) [3, 16]: 798 ng·h/mL
- Cmax [3, 17]: 467 ng/mL
- half-life [3, 18]: 2.11 h
- Tmax [3, 19]: 0.25 h
- HTR in presence of MDL100,907 (volinanserin), 5-HT2A antagonist (C57BL/6J mice; mouse, in vivo): completely inhibited
